According to US20160303245A1, “FATTY ACID DERIVATIVES OF DIMERIC INHIBITORS OF PSD-95” (UNIVERSITY OF COPENHAGEN, priority 2013, published 2016):
Read-outs that look alike come from different tables or passages of the source.

How the values were obtained:
[1] = In vitro plasma stability assay (modified, GnHCl before TCA precipitation); format: in vitro ADME; conditions: human plasma; for half-life: 1st order decay fit
Experimental: The plasma-stability of 1, 4, 7 and 13 was evaluated in a modified version of an in vitro plasma stability assay (Bach et al, Angew. Chem, Int. Ed, 2009, 48, 9685-9689). In the original procedure, the investigated compound was incubated in human plasma. Samples were then taken out at appropriate timepoints and the serum proteins were removed by precipitation with trichloroacetic acid (TCA) followed by analysis of the supernatants by RP-HPLC. The obtained peak areas were normalized to the amount at T0 and fitted to a 1st order decay model to calculate the half-life. When this method was applied to the FA-linked dimeric ligands, sample recoveries were low (<5%). This was caused by the removal of the FA-linked dimeric ligands as HSA-bound complexes during the TCA precipitation. Therefore dissolution of the sample in solid guanidine hydrochloride (GnHCI) to a final concentration of 6M was performed prior to the TCA precipitation. The purpose of this was to unfold the HSA in the sample, releasing the FA-linked dimeric ligand.

[2] = In vivo pharmacokinetics, blood concentration by LC-MS/MS after single s.c. bolus injection; design: species or system male Wistar rats; conditions: sc, rat
Excerpt: To determine the pharmacokinetic properties of FA-linked compounds we measured the concentration of selected compounds in blood by LC-MS/MS following a single subcutaneous (s.c.) bolus injection in male Wistar rats (FIG. 5). From this, it was apparent that all FA-linked dimeric ligands have longer T1/2 and greater Tmax than dimeric ligand without FA (UCCB01-125) (Table 4 and FIG. 5). […] The increased Tmax is explained by a prolonged absorption from the injection site. Overall, these properties enable administration by s.c.depot injections and thereby slow and consistent release of compound into the blood, whereby fewer administrations are needed to maintain pharmaceutical relevant blood concentrations.

PSD-95 PDZ1-2 = PSD-95 PDZ1-2 (Homo sapiens, UniProt P78352); experiment: In vitro fluorescence polarization (FP) competition binding assay, in TBS and modified with 1% HSA
Experimental: Affinity to PSD-95 was measured using an in vitro fluorescence polarization (FP) assay as described by Bach et al (PNAS USA, 2012, 109, 3317-3322). First, a saturation binding curve was obtained to determine KD values for the interaction between a dimeric fluorescent probe and PSD-95 PDZ1-2. Increasing concentrations of PDZ1-2 were added to a constant concentration (0.5 nM) of the probe. The fluorescence polarization of the samples was measured at excitation/emission wavelengths of 635/670 nm and the FP values were fitted to a one site binding model using the program GraphPad Prism. […] The FP values were fitted to a one site competition (variable slope) model in GraphPad Prism. The resulting IC50 were converted to competition inhibition constants, Ki values, as described (Nikolovska-Coleska et al, Anal Biochem, 2004, 332, 261-273). The modified FP assay was conducted as described above with 1% HSA in the assay. The synthesized FA-linked dimeric ligands were evaluated for their affinity to PSD-95 PDZ1-2 in the FP assay. […] We first measured the affinities using a simple tris-buffered saline (TBS) buffer (Table 2, FIG. 3A); but furthermore, we investigated if HSA influenced the ability of the FA-linked dimers to bind PSD95 PDZ1-2 by conducting the FP assay with HSA present in the assay buffer (Table 2, FIG. 3B). […] For a traditional small-molecule drug, it is commonly accepted that the unbound fraction of the drug is free to diffuse across membranes and exerts the physiological effect by interacting with its target (Berezhkovskiy et al, J Pharm Sci 2007, 96, 249-257). I.e. if the drug is bound to another molecule, then it cannot interact with the target at the same time.

HSA = target: T1, HSA (Homo sapiens, UniProt P02768); experiment: Transil XL HSA binding assay (immobilized HSA, unbound compound quantified by RP-HPLC)
T1 construct: purchased Sovicell GMBH, Leipzig, Germany
Experimental: The synthesized FA-linked dimeric ligands (1-12) were evaluated for their HSA affinity using a Transil^XL HSA binding assay kit (Sovicell GMBH, Leipzig, Germany). […] The assay kit consisted of prefilled wells with increasing concentrations of immobilized HSA as well as two control wells without HSA. The HSA had been immobilized in a random fashion to ensure that all binding sites on HSA were available. To conduct the assay, the wells were incubated with a known concentration of the tested compounds, and the unbound amount of compound was quantified using analytical RP-HPLC (C8 column). The fraction of unbound drug (fu) for each data point was calculated from the RP-HPLC data by comparison to a control sample without HSA. […] In eq. 1, it is assumed that the concentration of drug-bound HSA ([HSA-D]) is much lower than the total concentration of HSA in the well ([HSA-D]<<cHSA). The assay kit has been designed such that the assumption is valid for compounds where fu>1%. The calculated KD-values were used to calculate fb at physiological concentration of HSA (588 μM) using equation 2.

[3] = dose 10 mg/kg, mean ± SEM, n = 3
[4] = FP data (TBS+HSA) corrected for calculated fu, read-out: Ki(PSD95), free ligand
[5] = FP in TBS with 1% HSA (~150 μM), mean ± SEM, n ≧ 3, read-out: Ki(PSD95) + HSA
[6] = FP in TBS, mean ± SEM, n ≧ 3, read-out: Ki(PSD95)
[7] = dose 3 mg/kg, mean ± SEM, n = 3
[8] = dose 30 mg/kg, mean ± SEM, n = 3
[9] = dose 15 mg/kg, mean ± SEM, n = 3

T1 sequence (P02768 25-609): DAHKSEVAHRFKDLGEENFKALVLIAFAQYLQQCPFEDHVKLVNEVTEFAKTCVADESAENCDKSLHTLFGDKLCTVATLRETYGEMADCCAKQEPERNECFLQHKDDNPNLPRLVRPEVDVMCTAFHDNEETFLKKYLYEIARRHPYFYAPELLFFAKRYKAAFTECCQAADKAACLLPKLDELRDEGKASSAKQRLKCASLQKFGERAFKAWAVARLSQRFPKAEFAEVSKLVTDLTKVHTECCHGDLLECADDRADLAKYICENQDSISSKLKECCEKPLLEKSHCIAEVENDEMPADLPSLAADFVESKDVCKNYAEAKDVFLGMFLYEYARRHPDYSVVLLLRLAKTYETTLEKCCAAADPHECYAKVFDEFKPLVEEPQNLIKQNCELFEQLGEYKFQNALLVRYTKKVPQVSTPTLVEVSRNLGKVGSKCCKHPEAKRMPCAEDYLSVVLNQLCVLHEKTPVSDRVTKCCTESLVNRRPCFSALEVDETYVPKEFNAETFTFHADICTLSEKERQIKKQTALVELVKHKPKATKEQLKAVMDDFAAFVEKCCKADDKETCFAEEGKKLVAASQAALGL
Sequence of PSD-95 PDZ1-2 (P78352 61-249 limits assumed): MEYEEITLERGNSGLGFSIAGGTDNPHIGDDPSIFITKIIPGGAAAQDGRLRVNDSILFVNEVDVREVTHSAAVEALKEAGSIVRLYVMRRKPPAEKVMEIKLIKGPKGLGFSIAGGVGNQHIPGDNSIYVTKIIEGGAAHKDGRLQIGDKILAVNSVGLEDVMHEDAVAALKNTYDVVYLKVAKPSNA

Structure (SMILES)	In vitro plasma stability [1]	half-life [1]	Tmax [2, 3]	half-life [2, 3]	half-life ([2]; single s.c. bolus injection)	Ki (PSD-95 PDZ1-2; [4])	Ki (PSD-95 PDZ1-2; [5])	Ki (PSD-95 PDZ1-2; [6])	Kd (HSA)	fraction unbound (HSA)	Tmax [2, 7]	half-life [2, 7]	Tmax [2, 8]	half-life [2, 8]	Tmax [2, 9]	half-life [2, 9]
CCCCCCCCCCCCCCCCCC(=O)N[C@@H](CCC(=O)N(CCOCCOCCC(=O)N[C@H](C(=O)N[C@@H](CCC(=O)O)C(=O)N[C@H](C(=O)N[C@@H](C)C(=O)N[C@H](C(=O)O)C(C)C)[C@@H](C)O)[C@@H](C)CC)CCOCCOCCC(=O)N[C@H](C(=O)N[C@@H](CCC(=O)O)C(=O)N[C@H](C(=O)N[C@@H](C)C(=O)N[C@H](C(=O)O)C(C)C)[C@@H](C)O)[C@@H](C)CC)C(=O)O [Compound 7]	highly stable	> 24 h	6 ± 1.15 h	10.7 ± 0.58 h	> 8 h	0.0591 µM	1.39 ± 0.184 µM	0.017 µM	6.8 ± 1.2 µM	0.043						
CCCCCCCCCCCC(=O)NCCCC(=O)N(CCOCCOCCC(=O)N[C@H](C(=O)N[C@@H](CCC(=O)O)C(=O)N[C@H](C(=O)N[C@@H](C)C(=O)N[C@H](C(=O)O)C(C)C)[C@@H](C)O)[C@@H](C)CC)CCOCCOCCC(=O)N[C@H](C(=O)N[C@@H](CCC(=O)O)C(=O)N[C@H](C(=O)N[C@@H](C)C(=O)N[C@H](C(=O)O)C(C)C)[C@@H](C)O)[C@@H](C)CC [Compound 1]	degraded faster	23.6 h								0.151					0.833 ± 0.167 h	0.768 ± 0.045 h
CC[C@H](C)[C@H](NC(=O)CCOCCOCCN(CCOCCOCCC(=O)N[C@H](C(=O)N[C@@H](CCC(=O)O)C(=O)N[C@H](C(=O)N[C@@H](C)C(=O)N[C@H](C(=O)O)C(C)C)[C@@H](C)O)[C@@H](C)CC)C(=O)CCCNC(=O)CCCCCCCCCCCCCCCCC(=O)O)C(=O)N[C@@H](CCC(=O)O)C(=O)N[C@H](C(=O)N[C@@H](C)C(=O)N[C@H](C(=O)O)C(C)C)[C@@H](C)O [Compound 4]	highly stable	> 24 h			> 8 h	0.654 ± 0.034 µM	5.72 ± 0.298 µM	0.0114 ± 0.0006 µM	19.4 ± 3.6 µM	0.115					4.67 ± 0.66 h	8.13 ± 0.5 h

Continued, values first:

In vitro plasma stability [1]	half-life [1]	Tmax [2, 3]	half-life [2, 3]	half-life ([2]; single s.c. bolus injection)	Ki (PSD-95 PDZ1-2; [4])	Ki (PSD-95 PDZ1-2; [5])	Ki (PSD-95 PDZ1-2; [6])	Kd (HSA)	fraction unbound (HSA)	Tmax [2, 7]	half-life [2, 7]	Tmax [2, 8]	half-life [2, 8]	Tmax [2, 9]	half-life [2, 9]	Structure (SMILES)
	1.7 h							154 µM	0.507	0.5 h	0.561 ± 0.101 h	0.5 h	0.45 ± 0.068 h			CC[C@H](C)[C@H](NC(=O)CCOCCOCCOCCOCCOCCC(=O)N[C@H](C(=O)N[C@@H](CCC(=O)O)C(=O)N[C@H](C(=O)N[C@@H](C)C(=O)N[C@H](C(=O)O)C(C)C)[C@@H](C)O)[C@@H](C)CC)C(=O)N[C@@H](CCC(=O)O)C(=O)N[C@H](C(=O)N[C@@H](C)C(=O)N[C@H](C(=O)O)C(C)C)[C@@H](C)O [UCCB01-125, reference compound]
highly stable	> 24 h	8 h	16.3 ± 2.81 h	> 8 h				83 µM	0.356							CCCCCCCCCCCCCCCCCC(=O)NCCCC(=O)N(CCOCCOCCC(=O)N[C@H](C(=O)N[C@@H](CCC(=O)O)C(=O)N[C@H](C(=O)N[C@@H](CC(=O)O)C(=O)N[C@H](C(=O)O)C(C)C)[C@@H](C)O)[C@@H](C)CC)CCOCCOCCC(=O)N[C@H](C(=O)N[C@@H](CCC(=O)O)C(=O)N[C@H](C(=O)N[C@@H](CC(=O)O)C(=O)N[C@H](C(=O)O)C(C)C)[C@@H](C)O)[C@@H](C)CC [Compound 13]
